Source: patent US20160220801A1, “TREATING LICE WITH GASEOUS COMPOUNDS IN AN AIRTIGHT SPACE” (NOVOMIC LTD., priority 2007, published 2016)

System: lice
Conditions: active agent delivered as gas/vapour in an airtight cap around the head; comparison among carboxylic acids

| SMILES | effectiveness of carboxylic acids for use in treating lice and nits |
| --- | --- |
| CC(=O)O [acetic acid, Acetic acid] | most effective |
| O=CO [formic acid, Formic acid] | most effective |
